In the test the target is wild-type human cardiac sodium channel, hNav1.5 (late sodium current) (Homo sapiens, UniProt Q14524). In words: Late INa screening assay (PatchXpress whole cell patch clamp). It counts as cell-based. As to conditions: HEK293, 10 μM test compound; HEK293 cells expressing hNav1.5; late INa generated with 10 μM Tefluthrin (some experiments 50 nM ATX II); read-out: Late INa % blk (10 μM test cmpd). Here is the method: The late sodium current (Late INa) and peak sodium current (Peak INa) assays were performed on an automated electrophysiology platform, PatchXpress 7000A (MDS Analytical Technologies, Sunnyvale, Calif.), which uses the whole cell patch clamp technique to measure currents through the cell membrane of up to 16 cells at a time. The assay used an HEK293 (human embryonic kidney) cell line heterologously expressing the wild-type human cardiac sodium channel, hNav1.5, purchased from Millipore (Billerica, Mass.). No beta subunits were coexpressed with the Na channel alpha subunit. Cells were maintained with standard tissue culture procedures and stable channel expression was maintained with 400 μg/ml Geneticin in the culture medium. Cells isolated for use on PatchXpress were incubated for 5 minutes in Versene 1× and then for 2 minutes in 0.0125% Trypsin-EDTA (both at 37° C.) to ensure that 80-90% of the cells are single and not part of a cell cluster. Experiments were carried out at 24-27° C.
Sequence of wild-type human cardiac sodium channel, hNav1.5 (late sodium current) (Q14524 whole entry): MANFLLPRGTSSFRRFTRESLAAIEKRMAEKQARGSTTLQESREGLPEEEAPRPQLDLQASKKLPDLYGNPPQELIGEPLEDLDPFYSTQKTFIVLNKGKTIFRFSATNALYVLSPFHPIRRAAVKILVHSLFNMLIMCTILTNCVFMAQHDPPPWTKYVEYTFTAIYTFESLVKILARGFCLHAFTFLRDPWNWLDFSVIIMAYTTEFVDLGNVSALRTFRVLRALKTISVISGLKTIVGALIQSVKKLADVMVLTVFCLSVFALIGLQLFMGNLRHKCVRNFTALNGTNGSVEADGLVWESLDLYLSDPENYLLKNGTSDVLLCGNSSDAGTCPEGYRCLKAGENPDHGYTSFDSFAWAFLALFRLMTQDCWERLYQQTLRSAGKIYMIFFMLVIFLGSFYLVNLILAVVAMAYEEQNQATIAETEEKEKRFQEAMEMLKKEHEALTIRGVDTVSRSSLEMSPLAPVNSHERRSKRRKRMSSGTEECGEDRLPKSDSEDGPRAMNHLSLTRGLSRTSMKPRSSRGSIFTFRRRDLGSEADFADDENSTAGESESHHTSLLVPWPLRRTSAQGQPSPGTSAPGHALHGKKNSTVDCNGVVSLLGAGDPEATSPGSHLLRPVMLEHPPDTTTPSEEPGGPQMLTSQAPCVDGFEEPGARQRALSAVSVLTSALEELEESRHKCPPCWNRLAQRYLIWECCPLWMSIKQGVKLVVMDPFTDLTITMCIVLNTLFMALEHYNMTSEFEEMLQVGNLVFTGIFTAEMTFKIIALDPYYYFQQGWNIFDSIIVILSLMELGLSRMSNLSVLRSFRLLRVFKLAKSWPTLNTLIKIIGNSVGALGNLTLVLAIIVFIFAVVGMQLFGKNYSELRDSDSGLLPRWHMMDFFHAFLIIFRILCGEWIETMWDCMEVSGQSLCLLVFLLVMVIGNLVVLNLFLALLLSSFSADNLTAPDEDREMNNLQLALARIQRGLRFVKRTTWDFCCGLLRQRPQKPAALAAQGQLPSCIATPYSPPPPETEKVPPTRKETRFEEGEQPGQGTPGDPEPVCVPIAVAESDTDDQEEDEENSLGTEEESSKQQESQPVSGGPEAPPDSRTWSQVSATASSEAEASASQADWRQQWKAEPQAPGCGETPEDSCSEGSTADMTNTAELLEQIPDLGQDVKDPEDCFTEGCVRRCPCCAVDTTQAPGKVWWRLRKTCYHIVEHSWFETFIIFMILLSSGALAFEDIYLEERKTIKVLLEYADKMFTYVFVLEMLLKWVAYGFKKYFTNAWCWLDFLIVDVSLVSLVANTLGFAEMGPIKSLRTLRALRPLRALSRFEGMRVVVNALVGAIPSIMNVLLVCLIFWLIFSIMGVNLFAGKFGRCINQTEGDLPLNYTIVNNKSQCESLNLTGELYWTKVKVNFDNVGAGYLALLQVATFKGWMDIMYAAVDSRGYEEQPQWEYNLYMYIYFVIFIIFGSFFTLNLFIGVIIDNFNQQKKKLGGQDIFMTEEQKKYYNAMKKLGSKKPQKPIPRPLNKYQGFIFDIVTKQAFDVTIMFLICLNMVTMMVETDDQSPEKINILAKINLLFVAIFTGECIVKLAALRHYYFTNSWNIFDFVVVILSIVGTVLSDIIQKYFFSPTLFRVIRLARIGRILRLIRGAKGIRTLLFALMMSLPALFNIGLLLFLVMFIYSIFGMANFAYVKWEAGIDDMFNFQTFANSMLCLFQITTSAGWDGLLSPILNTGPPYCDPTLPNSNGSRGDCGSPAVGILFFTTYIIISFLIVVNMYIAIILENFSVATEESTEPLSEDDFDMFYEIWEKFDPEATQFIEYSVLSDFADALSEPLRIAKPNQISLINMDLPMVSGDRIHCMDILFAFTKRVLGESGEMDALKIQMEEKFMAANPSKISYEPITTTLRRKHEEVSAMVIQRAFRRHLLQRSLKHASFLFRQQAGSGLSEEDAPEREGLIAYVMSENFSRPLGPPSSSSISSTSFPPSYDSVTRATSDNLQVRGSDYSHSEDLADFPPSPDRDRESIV
For both the Late INa and Peak INa assays, series resistance compensation was set to 50% and whole-cell compensation was performed automatically. Currents were low-pass filtered at 10 kHz and digitized at 31.25 kHz. Currents through open sodium channels were automatically recorded and stored in the DataXpress2 database (MDS Analytical Technologies, Sunnyvale, Calif.). Analysis was performed using DataXpress2 analysis software and data are compiled in Excel.
Compound stocks were routinely made in glass vials to 10 mM in dimethyl sulfoxide (DMSO). In some cases, when compounds were not soluble in DMSO, they were made in 100% ethanol. Stocks were sonicated as necessary. The extracellular solution for screening Late INa was composed of: 140 mM NaCl, 4 mM KCl, 1.8 mM CaCl2, 0.75 mM MgCl2, and 5 mM HEPES with pH adjusted to 7.4 using NaOH. The extracellular solution for screening Peak INa was composed of: 20 mM NaCl, 120 mM N-methyl-D glucamine, 4 mM KCl, 1.8 mM CaCl2, 0.75 mM MgCl2, and 5 mM HEPES with pH adjusted to 7.4 using HCl. The intracellular solution used to perfuse the inside of the cells for both the Late INa and Peak INa assays contains: 120 mM CsF, 20 mM CsCl, 5 mM EGTA, 5 mM HEPES and pH adjusted to 7.4 with CsOH. Compounds were diluted in extracellular solution to 10 μM in glass vials and then transferred to glass well plates before robotic addition to the cells. The 0Na extracellular solution used at the end of each experiment for the Late INa and Peak INa assays to measure baseline current contained: 140 mM N-methyl-D-glucamine; 4 mM KCl; 1.8 mM CaCl2; 0.75 mM MgCl2; 5 mM HEPES and pH was adjusted to 7.4 with HCl.
For the Late INa assay, sodium channels were activated every 10 seconds (0.1 Hz) by depolarizing the cell membrane to −20 mV for 250 milliseconds (ms) from a holding potential of −120 mV. In response to a −20 mV voltage step, typical Nav1.5 sodium currents activated rapidly to a peak negative current and then inactivated nearly completely within 3-4 ms.
All compounds were tested to determine their activity in blocking the late sodium current. Late INa current is generated by adding 10 μM Tefluthrin (pyrethroid) to the extracellular solution while recording Na currents. For some experiments, 50 nM ATX II (sea anemone toxin), another late INa activator, was used to generate the late component. Both activators generate late components that are large enough that block of the late component by compounds can be measured easily. For the purposes of the screening, late INa is defined as the mean current between 225 ms and 250 ms after stepping to −20 mV to activate Na channels. After establishing the whole cell recording configuration, late INa activators were added to each well 4 times over a 16-17 minute period so that the late component of the Na current reached a stable value. Compounds were then added (typically at 10 μM), in the presence of late INa activator, with 3 additions over the course of 7 or 8 minutes. […]
For orientation: Patch clamp records ionic current or voltage across a cell membrane.

SMILES strings stand for the structures.

Regarding `CC(C)(C)OC(=O)CN1C(=O)CCc2cc(-c3cccc(Cl)c3)ccc21` [Compound 53, tert-butyl [6-(3-chlorophenyl)-2-oxo-3,4-dihydroquinolin-1(2H)-yl]acetate], the inhibition at 10 µM is 73%.

For the molecule `O=C(CN1C(=O)CCc2cc(-c3ccc(C(F)(F)F)cc3)ccc21)N1CCOCC1` [Compound 32, 1-[2-(morpholin-4-yl)-2-oxoethyl]-6-[4-(trifluoromethyl)phenyl]-3,4-dihydroquinolin-2(1H)-one], the inhibition at 10 µM worked out at 27%. For `O=C(O)c1ccc(CN2C(=O)CCc3cc(-c4ccc(C(F)(F)F)cc4)ccc32)cc1` [Compound 86, 4-((2-oxo-6-(4-(trifluoromethyl)phenyl)-3,4-dihydroquinolin-1(2H)-yl)methyl)benzoic acid], the inhibition at 10 µM is 13%. For `O=C1CCc2cc(-c3ccc(F)cc3F)ccc2N1CCO` [Compound 16, 6-(2,4-difluorophenyl)-1-(2-hydroxyethyl)-3,4-dihydroquinolin-2(1H)-one], the inhibition at 10 µM was found to be 24%.

In the case of `NC(=O)c1cccc(-c2ccc3c(c2)CCC(=O)N3)c1` [Compound 6, 3-(2-oxo-1,2,3,4-tetrahydroquinolin-6-yl)benzamide], the inhibition at 10 µM was 23%.

Take `COc1cc2c(cc1-c1ccc(Cl)cc1)CCC(=O)N2` [Compound 77, 6-(4-chlorophenyl)-7-methoxy-3,4-dihydroquinolin-2(1H)-one]: the inhibition at 10 µM is 72%. Consider `NC(=O)c1ccc(-c2ccc3c(c2)CCC(=O)N3)cc1` [Compound 2, 4-(2-oxo-1,2,3,4-tetrahydroquinolin-6-yl)benzamide], for which the inhibition at 10 µM is 16%. Then `CCOC(=O)c1cccc(CN2C(=O)CCc3cc(-c4ccc(C(F)(F)F)cc4)ccc32)c1` [Compound 91, ethyl 3-((2-oxo-6-(4-(trifluoromethyl)phenyl)-3,4-dihydroquinolin-1(2H)-yl)methyl)benzoate], with 31%; and `CCOC(=O)CN1C(=O)CCc2cc(-c3ccc(F)cc3F)ccc21` [Compound 22, ethyl [6-(2,4-difluorophenyl)-2-oxo-3,4-dihydroquinolin-1(2H)-yl]acetate], with 67%; and `COc1c(-c2ccc(Cl)cc2)cc2c(c1Br)NC(=O)CC2` [Compound 78, 8-bromo-6-(4-chlorophenyl)-7-methoxy-3,4-dihydroquinolin-2(1H)-one], with 34%. In the case of `CC(C)(C)OC(=O)CN1C(=O)CCc2cc(-c3ccc(OC(F)(F)F)cc3)ccc21` [Compound 50, tert-butyl {2-oxo-6-[4-(trifluoromethoxy)phenyl]-3,4-dihydroquinolin-1(2H)-yl}acetate], the inhibition at 10 µM was 76%.

Regarding `COc1ccccc1OCC(O)CN1C(=O)CCc2cc(-c3ccc(F)cc3F)ccc21` (stereo not shown) [Compound 88, 6-(2,4-difluorophenyl)-1-(2-hydroxy-3-(2-methoxyphenoxy)propyl)-3,4-dihydroquinolin-2(1H)-one], the inhibition at 10 µM came out at 40%. As to `CCOC(=O)CN1C(=O)CCc2cc(-c3ccc(F)c(F)c3)ccc21` [Compound 23, ethyl [6-(3,4-difluorophenyl)-2-oxo-3,4-dihydroquinolin-1(2H)-yl]acetate], the inhibition at 10 µM was found to be 33%. As for `O=C(O)CN1C(=O)CCc2cc(-c3ccc(Cl)cc3)ccc21` [Compound 68, [6-(4-chlorophenyl)-2-oxo-3,4-dihydroquinolin-1(2H)-yl]acetic acid], the inhibition at 10 µM was determined as 23%. For the molecule `CC(C)(C)OC(=O)CN1C(=O)CCc2cc(-c3ccc(Oc4ccccc4)cc3)ccc21` [Compound 66, tert-butyl [2-oxo-6-(4-phenoxyphenyl)-3,4-dihydroquinolin-1(2H)-yl]acetate], the inhibition at 10 µM was 27%. On to `NC(=O)CN1C(=O)CCc2cc(-c3ccc(OC(F)(F)F)cc3)ccc21` [Compound 31, 2-{2-oxo-6-[4-(trifluoromethoxy)phenyl]-3,4-dihydroquinolin-1(2H)-yl}acetamide], for which the inhibition at 10 µM amounted to 26%.

Values taken from patent US8664379B2, “Fused heterocyclic compounds as ion channel modulators” (Gilead Sciences, Inc., priority 2008, dated 2014).
